In PMC8245078, “Development of novel benzofuran-isatin conjugates as potential antiproliferative agents with apoptosis inducing mechanism in Colon cancer” (Journal of Enzyme Inhibition and Medicinal Chemistry, 2021):
Read-outs that look alike come from different tables or passages of the source.

Experiments:
Format in all cases: cell-based
HCC-2998 = experiment: NCI single dose screening (10 µM); settings: Homo sapiens
OVCAR-4 = experiment: NCI single dose screening (10 µM); settings: Homo sapiens
U251 = experiment: NCI single dose screening (10 µM); settings: Homo sapiens
NCI-H460 = experiment: NCI single dose screening (10 µM); settings: Homo sapiens
PC-3 = experiment: NCI single dose screening (10 µM); settings: Homo sapiens
786-0 = experiment: NCI single dose screening (10 µM); settings: Homo sapiens
EKVX = experiment: NCI single dose screening (10 µM); settings: Homo sapiens, read-out: GI% (cell growth inhibition percentage)
NCI-H522 = experiment: NCI single dose screening (10 µM); settings: Homo sapiens
RXF 393 = experiment: NCI single dose screening (10 µM); settings: Homo sapiens
MDA-MB-468 = experiment: NCI single dose screening (10 µM); settings: Homo sapiens
MCF7 = experiment: NCI single dose screening (10 µM); settings: Homo sapiens
NCI-H23 = experiment: NCI single dose screening (10 µM); settings: Homo sapiens
SN12C = experiment: NCI single dose screening (10 µM); settings: Homo sapiens, read-out: GI% (cell growth inhibition percentage)
CAKI-1 = experiment: NCI single dose screening (10 µM); settings: Homo sapiens
COLO 205 = experiment: NCI single dose screening (10 µM); settings: Homo sapiens
M14 = experiment: NCI single dose screening (10 µM); settings: Homo sapiens
[1] = system: NCI-55 cancer cell line panel; experiment: NCI single dose screening (10 µM), whole panel; settings: Homo sapiens, read-out: Mean inhibition, % (mean GI%)
ACHN = experiment: NCI single dose screening (10 µM); settings: Homo sapiens, read-out: GI% (cell growth inhibition percentage)
SR = experiment: NCI single dose screening (10 µM); settings: Homo sapiens, read-out: GI% (cell growth inhibition percentage)
A549/ATCC = experiment: NCI single dose screening (10 µM); settings: Homo sapiens
LOX IMVI = experiment: NCI single dose screening (10 µM); settings: Homo sapiens, read-out: GI% (cell growth inhibition percentage)
BT-549 = experiment: NCI single dose screening (10 µM); settings: Homo sapiens
HCT-15 = experiment: NCI single dose screening (10 µM); settings: Homo sapiens
DU-145 = experiment: NCI single dose screening (10 µM); settings: Homo sapiens
K-562 = experiment: NCI single dose screening (10 µM); settings: Homo sapiens
HOP-92 = experiment: NCI single dose screening (10 µM); settings: Homo sapiens
MDA-MB-435 = experiment: NCI single dose screening (10 µM); settings: Homo sapiens
MDA-MB-231/ATCC = experiment: NCI single dose screening (10 µM); settings: Homo sapiens
HOP-62 = experiment: NCI single dose screening (10 µM); settings: Homo sapiens
MOLT-4 = experiment: NCI single dose screening (10 µM); settings: Homo sapiens
SK-MEL-28 = experiment: NCI single dose screening (10 µM); settings: Homo sapiens
HCT-116 = experiment: NCI single dose screening (10 µM); settings: Homo sapiens
[2] = HCC-2998, Colon cancer, single dose 10^−5 M, read-out: GI% (cell growth inhibition percentage)
[3] = OVCAR-4, Ovarian cancer, single dose 10^−5 M, read-out: GI% (cell growth inhibition percentage)
[4] = U-251, U251, CNS cancer, single dose 10^−5 M, read-out: GI% (cell growth inhibition percentage)
[5] = NCI-H460, Non-small cell lung cancer, single dose 10^−5 M, read-out: GI% (cell growth inhibition percentage)
[6] = PC-3, Prostate cancer, single dose 10^−5 M, read-out: GI% (cell growth inhibition percentage)
[7] = 786-0, Renal cancer, single dose 10^−5 M, read-out: GI% (cell growth inhibition percentage)
[8] = Non-small cell lung cancer, single dose 10^−5 M
[9] = NCI-H522, Non-small cell lung cancer, single dose 10^−5 M, read-out: GI% (cell growth inhibition percentage)
[10] = RXF 393, Renal cancer, single dose 10^−5 M, read-out: GI% (cell growth inhibition percentage)
[11] = MDA-MB-468, Breast cancer, single dose 10^−5 M, read-out: GI% (cell growth inhibition percentage)
[12] = MCF7, Breast cancer, single dose 10^−5 M, read-out: GI% (cell growth inhibition percentage)
[13] = NCI-H23, Non-small cell lung cancer, single dose 10^−5 M, read-out: GI% (cell growth inhibition percentage)
[14] = Renal cancer, single dose 10^−5 M
[15] = CAKI-1, Renal cancer, single dose 10^−5 M, read-out: GI% (cell growth inhibition percentage)
[16] = COLO 205, Colon cancer, single dose 10^−5 M, read-out: GI% (cell growth inhibition percentage)
[17] = M14, Melanoma, single dose 10^−5 M, read-out: GI% (cell growth inhibition percentage)
[18] = mean over NCI-55 cell lines, single dose 10^−5 M
[19] = A549/ATCC, Non-small cell lung cancer, single dose 10^−5 M, read-out: GI% (cell growth inhibition percentage)
[20] = BT-549, Breast cancer, single dose 10^−5 M, read-out: GI% (cell growth inhibition percentage)
[21] = HCT-15, Colon cancer, single dose 10^−5 M, read-out: GI% (cell growth inhibition percentage)
[22] = DU-145, Prostate cancer, single dose 10^−5 M, read-out: GI% (cell growth inhibition percentage)
[23] = K562, K-562, Leukaemia, single dose 10^−5 M, read-out: GI% (cell growth inhibition percentage)
[24] = HOP-92, Non-small cell lung cancer, single dose 10^−5 M, read-out: GI% (cell growth inhibition percentage)
[25] = MDA-MB-435, Melanoma, single dose 10^−5 M, read-out: GI% (cell growth inhibition percentage)
[26] = MDA-MB-231/ATCC, Breast cancer, single dose 10^−5 M, read-out: GI% (cell growth inhibition percentage)
[27] = HOP-62, Non-small cell lung cancer, single dose 10^−5 M, read-out: GI% (cell growth inhibition percentage)
[28] = MOLT-4, Leukaemia, single dose 10^−5 M, read-out: GI% (cell growth inhibition percentage)
[29] = SK-MEL-28, Melanoma, single dose 10^−5 M, read-out: GI% (cell growth inhibition percentage)
[30] = HCT-116, Colon cancer, single dose 10^−5 M, read-out: GI% (cell growth inhibition percentage)

## CCCN1C(=O)/C(=N\NC(=O)c2oc3ccccc3c2C)c2ccccc21 [Compound 7b]
HCC-2998; HCC 2998, read-out: GI% (cell growth inhibition percentage)
  inhibition at 10 µM: < 10%
OVCAR-4; OVCAR-4, read-out: GI% (cell growth inhibition percentage)
  inhibition at 10 µM: < 10%
U251; U-251, read-out: GI% (cell growth inhibition percentage)
  inhibition at 10 µM: < 10%
NCI-H460; NCI-H460, read-out: GI% (cell growth inhibition percentage)
  inhibition at 10 µM: 15.6%
PC-3; PC-3, read-out: GI% (cell growth inhibition percentage)
  inhibition at 10 µM: 10.8%
786-0; 786-0, read-out: GI% (cell growth inhibition percentage)
  inhibition at 10 µM: < 10%
EKVX
  inhibition at 10 µM: 32.4%
NCI-H522; NCI-H522, read-out: GI% (cell growth inhibition percentage)
  inhibition at 10 µM: 10.3%
RXF 393; RXF 393, read-out: GI% (cell growth inhibition percentage)
  inhibition at 10 µM: < 10%
MDA-MB-468; MDA-MB-468, read-out: GI% (cell growth inhibition percentage)
  inhibition at 10 µM: < 10%
MCF7; MCF7, read-out: GI% (cell growth inhibition percentage)
  inhibition at 10 µM: 25%
NCI-H23; NCI-H23, read-out: GI% (cell growth inhibition percentage)
  inhibition at 10 µM: 15.1%
SN12C
  inhibition at 10 µM: < 10%
CAKI-1; CAKI-1, read-out: GI% (cell growth inhibition percentage)
  inhibition at 10 µM: 11.3%
COLO 205; COLO 205, read-out: GI% (cell growth inhibition percentage)
  inhibition at 10 µM: < 10%
M14; M14, read-out: GI% (cell growth inhibition percentage)
  inhibition at 10 µM: < 10%
[1]
  inhibition at 10 µM: 5.18%
ACHN
  inhibition at 10 µM: 11.6%
SR
  inhibition at 10 µM: < 10%
A549/ATCC; A549, read-out: GI% (cell growth inhibition percentage)
  inhibition at 10 µM: < 10%
LOX IMVI
  inhibition at 10 µM: < 10%
BT-549; BT-549, read-out: GI% (cell growth inhibition percentage)
  inhibition at 10 µM: < 10%
HCT-15; HCT-15, read-out: GI% (cell growth inhibition percentage)
  inhibition at 10 µM: < 10%
DU-145; DU-145, read-out: GI% (cell growth inhibition percentage)
  inhibition at 10 µM: < 10%
K-562; K562, read-out: GI% (cell growth inhibition percentage)
  inhibition at 10 µM: 11.4%
HOP-92; HOP-92, read-out: GI% (cell growth inhibition percentage)
  inhibition at 10 µM: < 10%
MDA-MB-435; MDA-MB-435, read-out: GI% (cell growth inhibition percentage)
  inhibition at 10 µM: < 10%
MDA-MB-231/ATCC; MDA-MB-231, read-out: GI% (cell growth inhibition percentage)
  inhibition at 10 µM: 29%
HOP-62; HOP-62, read-out: GI% (cell growth inhibition percentage)
  inhibition at 10 µM: 18.1%
MOLT-4; MOLT-4, read-out: GI% (cell growth inhibition percentage)
  inhibition at 10 µM: < 10%
SK-MEL-28; SK-MEL-28, read-out: GI% (cell growth inhibition percentage)
  inhibition at 10 µM: < 10%
HCT-116; HCT-116, read-out: GI% (cell growth inhibition percentage)
  inhibition at 10 µM: < 10%

## COc1ccc2c(c1)/C(=N/NC(=O)c1oc3ccccc3c1C)C(=O)N2 [Compound 5d]
HCC-2998; [2]
  inhibition at 10 µM: 56.5%
OVCAR-4; [3]
  inhibition at 10 µM: 153%
U251; [4]
  inhibition at 10 µM: 98%
NCI-H460; [5]
  inhibition at 10 µM: 123%
PC-3; [6]
  inhibition at 10 µM: 78.2%
786-0; [7]
  inhibition at 10 µM: 167%
EKVX; [8]
  inhibition at 10 µM: 62.7%
NCI-H522; [9]
  inhibition at 10 µM: 45.7%
RXF 393; [10]
  inhibition at 10 µM: 136%
MDA-MB-468; [11]
  inhibition at 10 µM: 80.1%
MCF7; [12]
  inhibition at 10 µM: 77.1%
NCI-H23; [13]
  inhibition at 10 µM: 89.3%
SN12C; [14]
  inhibition at 10 µM: 65.1%
CAKI-1; [15]
  inhibition at 10 µM: 152%
COLO 205; [16]
  inhibition at 10 µM: 77.2%
M14; [17]
  inhibition at 10 µM: 71.3%
[1]; [18]
  inhibition at 10 µM: 87.3%
ACHN; [14]
  inhibition at 10 µM: 151%
SR; Leukaemia, single dose 10^−5 M
  inhibition at 10 µM: 56.5%
A549/ATCC; [19]
  inhibition at 10 µM: 124%
LOX IMVI; Melanoma, single dose 10^−5 M
  inhibition at 10 µM: 83.7%
BT-549; [20]
  inhibition at 10 µM: 29.9%
HCT-15; [21]
  inhibition at 10 µM: 50.9%
DU-145; [22]
  inhibition at 10 µM: 82.4%
K-562; [23]
  inhibition at 10 µM: 57.5%
HOP-92; [24]
  inhibition at 10 µM: 144%
MDA-MB-435; [25]
  inhibition at 10 µM: 61%
MDA-MB-231/ATCC; [26]
  inhibition at 10 µM: 76.2%
HOP-62; [27]
  inhibition at 10 µM: 124%
MOLT-4; [28]
  inhibition at 10 µM: 49.1%
SK-MEL-28; [29]
  inhibition at 10 µM: 84.2%
HCT-116; [30]
  inhibition at 10 µM: 129%

## Cc1c(C(=O)N/N=C2\C(=O)N(C)c3ccccc32)oc2ccccc12 [Compound 7a]
HCC-2998; [2]
  inhibition at 10 µM: < 10%
OVCAR-4; [3]
  inhibition at 10 µM: < 10%
U251; [4]
  inhibition at 10 µM: < 10%
NCI-H460; [5]
  inhibition at 10 µM: < 10%
PC-3; [6]
  inhibition at 10 µM: < 10%
786-0; [7]
  inhibition at 10 µM: < 10%
EKVX; [8]
  inhibition at 10 µM: 25.1%
NCI-H522; [9]
  inhibition at 10 µM: < 10%
RXF 393; [10]
  inhibition at 10 µM: < 10%
MDA-MB-468; [11]
  inhibition at 10 µM: < 10%
MCF7; [12]
  inhibition at 10 µM: 28.2%
NCI-H23; [13]
  inhibition at 10 µM: < 10%
SN12C; [14]
  inhibition at 10 µM: < 10%
CAKI-1; [15]
  inhibition at 10 µM: 19.4%
COLO 205; [16]
  inhibition at 10 µM: < 10%
M14; [17]
  inhibition at 10 µM: < 10%
[1]; [18]
  inhibition at 10 µM: 0.09%
ACHN; [14]
  inhibition at 10 µM: < 10%
SR; Leukaemia, single dose 10^−5 M
  inhibition at 10 µM: < 10%
A549/ATCC; [19]
  inhibition at 10 µM: < 10%
LOX IMVI; Melanoma, single dose 10^−5 M
  inhibition at 10 µM: < 10%
BT-549; [20]
  inhibition at 10 µM: < 10%
HCT-15; [21]
  inhibition at 10 µM: < 10%
DU-145; [22]
  inhibition at 10 µM: < 10%
K-562; [23]
  inhibition at 10 µM: < 10%
HOP-92; [24]
  inhibition at 10 µM: < 10%
MDA-MB-435; [25]
  inhibition at 10 µM: < 10%
MDA-MB-231/ATCC; [26]
  inhibition at 10 µM: < 10%
HOP-62; [27]
  inhibition at 10 µM: < 10%
MOLT-4; [28]
  inhibition at 10 µM: < 10%
SK-MEL-28; [29]
  inhibition at 10 µM: < 10%
HCT-116; [30]
  inhibition at 10 µM: < 10%
